# Earlier results, collected in patent US20100136106A1, “Modified Release Famciclovir Compositions” (priority 2005, published 2010).
# Where two headings read alike, the source gives them in different places.
# Experiments:
# [1] = for metabolite, % of the dose in the urine: in vivo, po
# [2] = for solubility in water: 25° C.
# [3] = below 85% relative humidity
# [4] = not given; remark: listed apart in the source
# [5] = single 500 mg oral dose of radiolabeled famciclovir
# [6] = test system: cytochrome P450; settings: human liver microsomes
# [7] = for AUC(0-∞) / Cmax / Tmax: healthy male volunteers
# [8] = not given; remark: listed apart in the source
# [9] = 500 mg famciclovir t.i.d. for 7 days
# [10] = intravenous penciclovir
# [11] = 5 mg/kg radiolabeled penciclovir, 1-hour infusion
# [12] = test system: viral DNA polymerase; settings: competitively with deoxyguanine triphosphate
# [13] = 500 mg famciclovir single oral dose, patients with herpes zoster
compound,measurement,setting,value
CC(=O)OCC(CO)CCn1cnc2c(=O)[nH]c(N)nc21 (stereo not drawn) [monoacetylated penciclovir],"metabolite, % of the dose in the urine",[1],< 0.5%
CC(=O)OCC(CCn1cnc2cnc(N)nc21)COC(C)=O [monohydrate],solubility in water,[2]; monohydrate that precipitates,2-3 % w/v
"CC(=O)OCC(CCn1cnc2cnc(N)nc21)COC(C)=O [famciclovir, 2-[2-(2-amino-9H-purin-9-yl)ethyl]-1,3-propanediol diacetate]",hygroscopicity,[3],not hygroscopic
same,decrease in Cmax,given 2 hours after a meal compared to 2 hours before a meal,18%
same,effect of food on absorption,regular doses,does not affect the extent of absorption
same,AUC (mean±SD),[4]; [13],12100 ± 1700 ng·h/mL
same,Cmax (mean±SD),[4]; [13],4000 ± 700 ng/mL
same,Tmax (mean±SD),[4]; [13],42 ± 12 min
same,famciclovir detected in plasma or urine,[1]; oral administration of famciclovir,Little or no
same,administered radiolabeled dose collected in urine,[5]; first 6 hours,Approximately 60%
same,administered radioactivity recovered in feces,[5]; over 72 hours,27%
same,administered radioactivity recovered in urine,[5]; over 72 hours,73%
same,role of cytochrome P450 in famciclovir metabolism,[6],does not play an important role
same,AUC(0-∞),[7]; 125 mg single oral dose,2240 ng·h/mL
same,Cmax,[7]; 125 mg single oral dose,800 ng/mL
same,Tmax,[7]; 125 mg single oral dose,54 min
same,AUC(0-∞),[7]; 250 mg single oral dose,4480 ng·h/mL
same,Cmax,[7]; 250 mg single oral dose,1600 ng/mL
same,Tmax,[7]; 250 mg single oral dose,54 min
same,AUC(0-∞),[7]; 500 mg single oral dose,8950 ng·h/mL
same,Cmax,[7]; 500 mg single oral dose,3300 ng/mL
same,Tmax,[7]; 500 mg single oral dose,54 min
same,partition coefficient P,[8]; octanol/phosphate buffer (pH 7.4),2.08
same,partition coefficient P,[8]; octanol/water (pH 4.8),1.09
same,solubility in acetone,[2],freely soluble
same,solubility in ethanol,[2],sparingly soluble
same,solubility in isopropanol,[2],sparingly soluble
same,solubility in methanol,[2],freely soluble
same,solubility in water,[2]; initially,> 25 % w/v
Nc1ncc2ncn(CCC(CO)CO)c2n1 [6-deoxy penciclovir],"metabolite, % of the dose in the urine",[1],5%
CC(=O)OCC(CO)CCn1cnc2cnc(N)nc21 (stereo not drawn) [6-deoxy monoacetylated penciclovir],"metabolite, % of the dose in the urine",[1],< 0.5%
Nc1nc2c(ncn2CCC(CO)CO)c(=O)[nH]1 [penciclovir],decrease of penciclovir Cmax with food,capsule formulation of famciclovir with food (approximately 910 Kcal and 26% fat),approximately 50%
same,AUC of penciclovir greater in patients with herpes zoster as compared to healthy volunteers,[4]; 500 mg famciclovir oral,approximately 35%
same,half-life,[4]; seven patients with herpes zoster,180 ± 66 min
same,accumulation of penciclovir,[9],no accumulation
same,share of the radioactivity excreted in the urine,[5],82%
same,dose proportionality of penciclovir concentrations,"[7]; famciclovir dose range of 125 mg to 750 mg, single dose",increased in proportion to dose
same,renal clearance as share of total plasma clearance,[10],74.5±8.8%
same,share of the radioactivity excreted in the urine,[11],91%
same,dose excreted in urine,[11]; first 6 hours,83%
same,administered radioactivity recovered in urine,[11]; over 24 hours,Approximately 94%
penciclovir triphosphate,inhibition of viral DNA polymerase,[12],inhibit viral DNA polymerase competitively
